This is an account of results in PMC4734850, “Tyrosinase inhibitory activity of flavonoids from Artocarpus heterophyllous” (Chemistry Central Journal, 2016).

Assay [1] has as its target T1, Tyrosinase (EC 1.14.18.1) from mushroom (Agaricus bisporus, UniProt C7FF04).
T1 construct: purchased Sigma Chemical Co. (St. Louis, MO, USA)
Put plainly: Tyrosinase inhibitory assay (L-DOPA oxidation, absorbance at 475 nm). The assay is classed as biochemical. On the procedure: Tyrosinase (EC 1.14.18.1) from mushroom (3933 U/mL) and L-dihydroxyphenylalanine (L-DOPA) were obtained from Sigma Chemical Co. (St. Louis, MO, USA). […] Other chemicals were of the highest grade available.
All the samples were first dissolved in DMSO and used for the actual experiment at concentrations of […] (or µM for pure compounds). The tyrosinase inhibitory activity assay was performed as previously described by Arung et al.. The assay mixtures consisting of 1900 µL of test solution in 0.1 M phosphate buffer pH 6.8 and 100 µL of enzyme solution (15 U/mL in 0.1 M phosphate buffer pH 6.8) was prepared immediately before use. After preincubation at room temperature for 30 min, the reaction was initiated by the addition of 1000 µL of substrate solution (1.5 mM L-DOPA in 0.1 M phosphate buffer pH 6.8). The assay mixture was incubated at room temperature for 7 min, and the absorbance at 475 nm was measured with a Shimadzu UV-1800 spectrophotometer. […] Tyrosinase inhibitory activity was expressed as the percentage inhibitory of enzyme tyrosinase in the above assay system, calculated as (1 − B/A) × 100, where A and B are the activities of the enzyme without and with test material. IC50 values were calculated from the mean values of data from four determinations.

The target of the next assay is T2, mushroom tyrosinase (Agaricus bisporus, UniProt C7FF04).
T2 construct: purchased Sigma Chemical Co. (St. Louis, MO, USA)
Put plainly: Inhibition mechanism, Lineweaver–Burk plots. The assay is classed as biochemical. The note with it: 30 °C, pH 6.8. The procedure:
Fig. 3 Lineweaver–Burk plots for type of inhibition of mushroom tyrosinase (10 U/mL) by artocaepin E (1) for the catalysis of L-DOPA (0.2, 0.3, 0.4, 0.5, and 0.6 mM) at 30 °C, pH 6.8. Concentration of these compounds for curves I0.0, I5.0, I7.0, and I10.0 were 0.0, 5.0, 7.0, and 10.0 μM, respectively. The inset represents the plot of these compounds for determining the inhibition constant (Ki). The line is drawn using a linear lest squares fit
The dependence of absorbance (475 nm) on time was measured, and the reaction rate was calculated for all reactions (uninhibited and inhibited). Then, a Lineweaver–Burk plot was constructed, and Km and Vm values were calculated. Each measurement was performed in duplicate.

[2] abbreviates: mushroom tyrosinase, substrate L-DOPA, 0.1 M phosphate buffer pH 6.8, room temperature, read-out: Tyrosinase inhibitory activity IC50.

Where two headings read alike, the source gives them in different places.

T1 sequence (C7FF04 1-392 limits assumed): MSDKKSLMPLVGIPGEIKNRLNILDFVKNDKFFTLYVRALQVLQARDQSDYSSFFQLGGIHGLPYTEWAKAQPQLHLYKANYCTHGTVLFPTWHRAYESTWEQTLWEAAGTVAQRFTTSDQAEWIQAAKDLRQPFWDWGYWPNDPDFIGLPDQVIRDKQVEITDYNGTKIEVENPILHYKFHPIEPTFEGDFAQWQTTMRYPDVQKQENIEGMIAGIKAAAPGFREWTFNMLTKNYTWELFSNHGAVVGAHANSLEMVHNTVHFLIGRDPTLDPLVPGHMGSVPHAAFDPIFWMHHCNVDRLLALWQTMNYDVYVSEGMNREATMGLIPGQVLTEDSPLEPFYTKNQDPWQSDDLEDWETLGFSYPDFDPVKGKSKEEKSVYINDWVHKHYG
T2 sequence (C7FF04 1-392 limits assumed): as above

In the case of `C/C(=C\Cc1c(O)cc2oc(-c3ccc(O)cc3O)cc(=O)c2c1O)COC(=O)/C=C/c1ccc(O)cc1` [Compound 1, artocaepin E], the half-maximal inhibitory concentration (IC50) in assay [1] (setting [2]) was determined as 6.7 ± 0.8 µM. Besides, the type of inhibition result on mushroom tyrosinase (Lineweaver–Burk plots, L-DOPA substrate) is reported as “competitive inhibition”. For the same compound, the inhibition constant (Ki) on mushroom tyrosinase (mushroom tyrosinase 10 U/mL, L-DOPA 0.2-0.6 mM, read-out: inhibition constant (Ki)) worked out at 6.23 µM. Take `C/C(=C\Cc1c(O)ccc2c1O[C@H](c1ccc(O)cc1)CC2=O)CO` [Compound 2, artocaepin F]: in assay [1] (setting [2]), the half-maximal inhibitory concentration (IC50) is over 50 µM. Still for that read-out and setting: the same measure for `O=c1cc(-c2ccc(O)cc2O)oc2cc(O)cc(O)c12` [Compound 3, norartocarpetin]: over 50 µM. For `COc1cc(O)c2c(c1)O[C@H](c1ccc(O)cc1O)CC2=O` [Compound 4, artocarpanone], in assay [1] (setting [2]), the IC50 amounted to 2 ± 0.1 µM. Turning to `O=C1C[C@@H](c2ccc(O)cc2)Oc2cc(O)ccc21` [Compound 5, liquiritigenin], the IC50 in assay [1] was found to be 22 ± 2.5 µM. With `O=C1CC(c2ccc(O)cc2O)Oc2cc(O)cc(O)c21` (stereo not shown) [Compound 6, steppogenin], the IC50 in assay [1] (setting [2]) turned out to be 7.5 ± 0.5 µM. Moreover, the “inhibitory activity relative to 4” value in assay [1] (ratio of tyrosinase IC50 values, 6 vs 4) is given as 3.75 fold.

For the compound `O=C1c2c(O)cc(O)cc2O[C@H](c2ccc(O)cc2O)[C@H]1O` [Compound 7, dihydromorin], in assay [1] (setting [2]), the IC50 is over 50 µM.

A word on the IC50: it is the midpoint of a concentration-inhibition curve. One may read the Ki as a measure of affinity in units of concentration, obtained from inhibition or displacement.
